Reference: PubChem BioAssay AID328 (DTP/NCI, 2004)
“And” between values parts separate entries of the source, which are not always exact repeats. Equal entries are not always repeated. Toxic doses and inconclusive results are not listed.

Test system: BDF1 mice, P388 leukemia ip, median survival T/C
Experiment: NCI In Vivo Anticancer Drug Screen. Data for tumor model P388 Leukemia (intraperitoneal) in B6D2F1 (BDF1) mice
Details: endpoint: median survival time, higher = longer survival
Summary of the method: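 Survival ratio, drug arm over vehicle arm, in mice with a transplanted tumour.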

[1] = dose: 50.0 mg/kg/injection, schedule: Q01DX009 (ip), vehicle: saline with Tween-80
[2] = dose: 100.0 mg/kg/injection, schedule: Q01DX009 (ip), vehicle: saline with Tween-80
[3] = dose: 100.0 mg/kg/injection, schedule: Q04DX003 (ip), vehicle: saline with Tween-80
[4] = dose: 200.0 mg/kg/injection, schedule: Q04DX003 (ip), vehicle: saline with Tween-80
[5] = dose: 400.0 mg/kg/injection, schedule: Q04DX003 (ip), vehicle: saline with Tween-80
[6] = dose: 25.0 mg/kg/injection, schedule: Q01DX009 (ip), vehicle: saline with Tween-80
[7] = dose: 50.0 mg/kg/injection, schedule: Q01DX009 (ip), vehicle: Klucel (hydroxypropylcellulose) (HPC)
[8] = dose: 100.0 mg/kg/injection, schedule: Q01DX009 (ip), vehicle: Klucel (hydroxypropylcellulose) (HPC)
[9] = dose: 200.0 mg/kg/injection, schedule: Q01DX009 (ip), vehicle: Klucel (hydroxypropylcellulose) (HPC)
[10] = dose: 25.0 mg/kg/injection, schedule: Q01DX009 (ip), vehicle: saline
[11] = dose: 12.5 mg/kg/injection, schedule: Q01DX009 (ip), vehicle: saline with Tween-80
[12] = dose: 50.0 mg/kg/injection, schedule: Q04DX003 (ip), vehicle: Klucel (hydroxypropylcellulose) (HPC)
[13] = dose: 200.0 mg/kg/injection, schedule: Q04DX003 (ip), vehicle: Klucel (hydroxypropylcellulose) (HPC)
[14] = dose: 100.0 mg/kg/injection, schedule: Q04DX003 (ip), vehicle: Klucel (hydroxypropylcellulose) (HPC)
[15] = dose: 200.0 mg/kg/injection, schedule: Q01DX009 (ip), vehicle: saline with Tween-80
[16] = dose: 400.0 mg/kg/injection, schedule: Q01DX009 (ip), vehicle: saline with Tween-80
[17] = dose: 50.0 mg/kg/injection, schedule: Q01DX009 (ip), vehicle: saline

CCC[N+]12C(O)C(CC)C3CC1C1N(C)c4ccc(Br)cc4C14CC2C3C4O (stereo not given)
T/C [1]: 102 % of control
T/C [2]: 105 % of control

[Br][Co][Br].[NH-]CC[NH-].[NH-]CC[NH-]
T/C (dose: 200.0 mg/kg/injection, schedule: Q04DX003 (ip), vehicle: saline): 109 % of control

CC1=C2CC[C@H]3[C@@H]4CC[C@H](O)[C@@]4(C)CC[C@@H]3[C@@]2(C)CCC1=O
T/C [3]: 95 % of control
T/C [4]: 95 % of control
T/C [5]: 100 % of control

CC(C)NCC(O)COc1ccc(OCc2ccccc2)c(OCc2ccccc2)c1 (stereo not given)
T/C [6]: 106 % of control
T/C [1]: 94 % of control

CC(=O)N(O)CCCC1NC(=O)C(CCCN(O)C(C)=O)NC1=O (stereo not given)
T/C (dose: 100.0 mg/kg/injection, schedule: Q01DX001 (ip), vehicle: saline): 90 % of control
T/C (dose: 200.0 mg/kg/injection, schedule: Q01DX001 (ip), vehicle: saline): 90 % of control
T/C (dose: 400.0 mg/kg/injection, schedule: Q01DX001 (ip), vehicle: saline): 95 % of control

O=C(O)CCCCCCc1ccc2ccccc2n1
T/C (dose: 50.0 mg/kg/injection, schedule: Q01DX009 (ip), vehicle: other): 105 % of control
T/C (dose: 100.0 mg/kg/injection, schedule: Q01DX009 (ip), vehicle: other): 117 % of control
T/C (dose: 200.0 mg/kg/injection, schedule: Q01DX009 (ip), vehicle: other): 114 % of control

CC[C@@H]1C[C@@H]2CN3CCc4c([nH]c5ccc(OC)cc45)C(C(=O)OC)(C2)C13
T/C [7]: 108 % of control
T/C [8]: 113 % of control
T/C [9]: 113 % of control

C1O[C@@H]1[C@H]1CO1
T/C [10]: 150 % of control
T/C (dose: 37.5 mg/kg/injection, schedule: Q01DX009 (ip), vehicle: saline): 186 % of control

O=C(OCC(OC(=O)c1ccccc1)C(OC(=O)c1ccccc1)C(OC(=O)c1ccccc1)C(COC(=O)c1ccccc1)OC(=O)c1ccccc1)c1ccccc1 (stereo not given)
T/C (dose: 6.25 mg/kg/injection, schedule: Q04DX003 (ip), vehicle: saline with Tween-80): 97 % of control
T/C (dose: 12.5 mg/kg/injection, schedule: Q04DX003 (ip), vehicle: saline with Tween-80): 92 % of control
T/C (dose: 25.0 mg/kg/injection, schedule: Q04DX003 (ip), vehicle: saline with Tween-80): 97 % of control
T/C (dose: 50.0 mg/kg/injection, schedule: Q04DX003 (ip), vehicle: saline with Tween-80): 87 % of control

CC(=O)Nc1ccc(S(=O)(=O)N(CCO)c2ccccc2)cc1
T/C [11]: 104 % of control
T/C (dose: 12.5 mg/kg/injection, schedule: Q04DX003 (ip), vehicle: Klucel (hydroxypropylcellulose) (HPC)): 100 % of control
T/C [6]: 104 % of control
T/C (dose: 25.0 mg/kg/injection, schedule: Q04DX003 (ip), vehicle: Klucel (hydroxypropylcellulose) (HPC)): 109 % of control
T/C [1]: 96 % of control
T/C [12]: 109 % of control
T/C [13]: 87 % of control

COc1cc(N(CCCl)CCCl)c(OC)cc1/C=N/NC(=O)CC(N)C(=O)O (stereo not given)
T/C (dose: 16.0 mg/kg/injection, schedule: Q01DX009 (ip), vehicle: Klucel (hydroxypropylcellulose) (HPC)): 153 % of control
T/C (dose: 25.0 mg/kg/injection, schedule: Q01DX009 (ip), vehicle: Klucel (hydroxypropylcellulose) (HPC)): 150 % of control and 179 % of control
T/C (dose: 35.0 mg/kg/injection, schedule: Q01DX009 (ip), vehicle: Klucel (hydroxypropylcellulose) (HPC)): 153 % of control
T/C [7]: 177 % of control
T/C (dose: 65.0 mg/kg/injection, schedule: Q04DX003 (ip), vehicle: Klucel (hydroxypropylcellulose) (HPC)): 181 % of control
T/C [14]: 235 % of control
T/C (dose: 132.0 mg/kg/injection, schedule: Q04DX003 (ip), vehicle: Klucel (hydroxypropylcellulose) (HPC)): 240 % of control and 247 % of control
T/C [13]: 265 % of control and 272 % of control and 180 % of control
T/C (dose: 400.0 mg/kg/injection, schedule: Q04DX003 (ip), vehicle: Klucel (hydroxypropylcellulose) (HPC)): 100 % of control

NCC=C1C2CC3CC(C2)CC1C3
T/C (dose: 12.5 mg/kg/injection, schedule: Q04DX003 (ip), vehicle: saline): 103 % of control
T/C (dose: 25.0 mg/kg/injection, schedule: Q04DX003 (ip), vehicle: saline): 100 % of control
T/C (dose: 50.0 mg/kg/injection, schedule: Q04DX003 (ip), vehicle: saline): 100 % of control

C=CC(=O)NC12CC3CC(CC(C3)C1)C2
T/C [3]: 95 % of control
T/C [4]: 95 % of control

FC(F)(F)c1nnn[n-]1.[Au+].c1ccc([PH+](c2ccccc2)c2ccccc2)cc1
T/C (dose: 25.0 mg/kg/injection, schedule: Q01DX001 (ip), vehicle: saline with Tween-80): 100 % of control
T/C (dose: 50.0 mg/kg/injection, schedule: Q01DX001 (ip), vehicle: saline with Tween-80): 102 % of control

CCOC(=O)C1=S=C(SC)N(C)C1=O
T/C [1]: 106 % of control and 115 % of control
T/C [2]: 103 % of control and 116 % of control

CCOC(=O)/C(Cc1cnc2ccccc2n1)=N\O
T/C [3]: 95 % of control
T/C [4]: 100 % of control
T/C [5]: 100 % of control

CC[C@@]1(O)C[C@H](OC2CC(N(C)C)C(O)C(C)O2)c2c(cc3c(c2O)C(=O)c2c(O)ccc(O)c2C3=O)[C@H]1C(=O)OC (stereo not given in full)
T/C (dose: 20.0 mg/kg/injection, schedule: Q04DX003 (ip), vehicle: other): 157 % of control

COc1ccc(C(=O)CC(C(=O)O)c2ccc(OC)c(OC)c2)cc1OC (stereo not given)
T/C [2]: 104 % of control
T/C [15]: 104 % of control
T/C [16]: 100 % of control

C[N+](C)(Cn1ncc2ccc([N+](=O)[O-])cc21)Cn1ncc2ccc([N+](=O)[O-])cc21
T/C [3]: 106 % of control

COc1cc(NCCCCC(C)N)c2nccc(C)c2c1 (stereo not given)
T/C [17]: 105 % of control

S=C(S)N1CCN(C(=S)S)CC1
T/C [10]: 100 % of control and 104 % of control and 110 % of control
T/C (dose: 35.0 mg/kg/injection, schedule: Q01DX009 (ip), vehicle: saline): 91 % of control
T/C [17]: 95 % of control and 105 % of control
T/C (dose: 100.0 mg/kg/injection, schedule: Q01DX009 (ip), vehicle: saline): 95 % of control
T/C (dose: 200.0 mg/kg/injection, schedule: Q01DX009 (ip), vehicle: saline): 86 % of control

Nc1nc2ncc(CNc3ccc(C(=O)NC(CCC(=O)O)C(=O)O)cc3)nc2c(=O)[nH]1 (stereo not given)
T/C [11]: 100 % of control
T/C [6]: 106 % of control
T/C [1]: 107 % of control
T/C (dose: 50.0 mg/kg/injection, schedule: Q01DX010 (ip), vehicle: saline): 100 % of control

OCCNCCNCC[OH2+].OCCNCCNCC[OH2+].[Ni+2].[O-][Cl+3]([O-])([O-])[O-]
T/C [17]: 92 % of control

c1ccc(-c2c[se]nn2)cc1
T/C (dose: 1.56 mg/kg/injection, schedule: Q01DX009 (ip), vehicle: saline + alcohol): 102 % of control
T/C (dose: 3.13 mg/kg/injection, schedule: Q01DX009 (ip), vehicle: saline + alcohol): 100 % of control
T/C (dose: 6.25 mg/kg/injection, schedule: Q01DX009 (ip), vehicle: saline + alcohol): 89 % of control
T/C (dose: 6.25 mg/kg/injection, schedule: Q01DX009 (ip), vehicle: saline with Tween-80): 86 % of control

Cc1ccc(C(CC(=O)O)CC(=O)O)c(O)c1
T/C (dose: 100.0 mg/kg/injection, schedule: Q01DX009 (ip), vehicle: gum acacia): 100 % of control
T/C (dose: 100.0 mg/kg/injection, schedule: Q04DX003 (ip), vehicle: gum acacia): 111 % of control
T/C (dose: 200.0 mg/kg/injection, schedule: Q01DX009 (ip), vehicle: gum acacia): 103 % of control
T/C (dose: 200.0 mg/kg/injection, schedule: Q04DX003 (ip), vehicle: gum acacia): 103 % of control
T/C (dose: 400.0 mg/kg/injection, schedule: Q01DX009 (ip), vehicle: gum acacia): 89 % of control
T/C (dose: 400.0 mg/kg/injection, schedule: Q04DX003 (ip), vehicle: gum acacia): 88 % of control

Cc1noc(C)c1CC1(Cc2c(C)noc2C)C(=O)CCC2(C)CCCC=C21 (stereo not given)
T/C [12]: 91 % of control
T/C [8]: 104 % of control
T/C [14]: 104 % of control
T/C [9]: 95 % of control
T/C [13]: 91 % of control

Cc1c(NC(=O)Nc2ccccc2F)c(=O)n(-c2ccccc2)n1C
T/C [7]: 100 % of control
T/C [8]: 90 % of control
T/C [9]: 95 % of control

c1ccc(P(CCP(CCP(c2ccccc2)c2ccccc2)c2ccccc2)CCP(c2ccccc2)c2ccccc2)cc1 (stereo not given)
T/C [2]: 90 % of control and 100 % of control
T/C [15]: 110 % of control and 100 % of control
T/C [16]: 100 % of control and 120 % of control

Nc1nc(=O)c2[nH]cnc2n1O
T/C (dose: 13.75 mg/kg/injection, schedule: Q01DX009 (ip), vehicle: saline): 90 % of control
T/C (dose: 27.5 mg/kg/injection, schedule: Q01DX009 (ip), vehicle: saline): 95 % of control
